Assay [1] has as its system soleus muscle. Kind of assay: Lipid metabolites (free fatty acid, glycerol, triglyceride; enzymatic analysis) in isolated soleus muscle from normally fed rats. It is filed as cell-based, rat. To be noted: 1 h.
Assay [2] concerns soleus muscle. The assay is described as follows: Glucose transport (2-deoxy-D-glucose uptake) in incubated soleus muscle strips. Format: cell-based, rat. How it is done:
(§1) Soleus muscle preparation. All experiments were performed according to protocols approved by the Institutional Animal Ethics Committee. 5-6 week-old male Wistar rats (160 g) were kept on a 12:12-h light/dark cycle, and fed and watered ad libitum. Animals were anaesthetised with 50 mg/kg Nembutal (pentobarbitone sodium), then sacrificed by cervical dislocation. Soleus muscles were dissected under oxygenated KHB (118 mM NaCl, 4.75 mM KCl, 1.2 mM MgSO4, 24.8 mM NaHCO3, 1.2 mM KH2PO4, 2.54 mM CaCl2, 10 mM glucose, pH 7.4) and teased into halves, then incubated as described below.
Determination of rates of glucose transport in incubated soleus muscle strips. 4-5 muscle strips were added to each flask, which contained 10 ml DMEM. They were pre-incubated with hormones as indicated for 30 min at 30° C. in a shaking water bath, after which 5 μl of 2[^3H]DOG (0.5 μCi/ml) and 5 μl D[^14C(U)]sorbitol (0.05 μCi/ml) were added, then incubated for another 30 min; RIA grade BSA was added to 0.9% (w/v) to prevent non-specific binding of insulin to flasks. Following incubation, muscle strips were transferred to ice-cold KHB for 5-10 min to remove excess [^3H]DOG and [^14C]sorbitol. They were then blotted, frozen, tendons excised, then lyophilized for a further 48 h. Muscles were then weighed, transferred to scintillation vials and digested with 0.5 ml 1 M NaOH at 60° C. for 1 h. Scintillation fluid (4 ml) was added to each vial, and samples counted in a Beckman liquid scintillation spectrometer, preset to count ^14C and ^3H channels simultaneously. The amount of each isotope present in the samples was determined and used to calculate the extracellular space and the intracellular concentration of [^3H]DOG. The accumulation of intracellular [^3H]DOG, a measure of muscle glucose uptake, was calculated by subtracting the concentration of [^3H]DOG in the extracellular space from the corresponding total muscle [^3H]DOG]; extracellular [^3H]DOG was quantified by measuring the muscle concentration of [^14C]sorbitol.
Data analysis. One way ANOVA, Dunnett's Multiple Comparisons Test, and unpaired Student's t-tests were used to calculate the statistical significance of differences, as appropriate. Dose-response curves were fitted to a sigmoidal dose-response algorithm, as follows: Y=minimum+(maximum−minimum)/([…] log ^(EC50^−X), for 2-DOG-uptake; and by a four parameter logistic model, Y=minimum+(maximum−minimum)/(1+10 log ^(EC50^−X)Hill-Coefficient) for total glycogen and [^14C]glucose incorporation. Calculations were performed using Prism v2.0 (GraphPad Software, San Diego, Calif.) to derive values for half-maximal effective concentration (EC50). Displacement curves derived for competition of bound radioligand with cold ligand in transfected cells were calculated according to a one site competition fit using Prism v2.0.

For assay [3], the target named is metabolic amylin receptor.
The subject of assay [4] is soleus muscle. The assay is described as follows: cAMP content of isolated soleus muscle from normal fed rats. Format: cell-based, rat. To be noted: for cAMP content in soleus muscles: 1 μM isoproterenol. The method, then:
as §1
For the measurement of cAMP in muscle, isolated soleus strips were incubated with stated concentrations of peptides, then lyophilized and deproteinized. Each strip was placed in 400 μl of 0.5 M HClO4 with 5 mM EDTA (phosphodiesterase inhibitor) and sonicated three times in 20 s bursts. Tubes were heated for 3-5 min in boiling water to coagulate protein, then centrifuged (12,000 g, 4° C., 2 min). Supernatant (300 μl) was taken and the pH adjusted to 7.0 with 75 μl of 2 M NH4OH. The samples were refrigerated (4° C., 2 h) to precipitate proteins, then centrifuged under the same conditions as above and 50 μl taken for cAMP measurement.

Where no end group is shown, it is not given here.

On to “insulin: Soluble human insulin (Actrapid 100U, Novo Nordisk)”, for which the “free fatty acid content in conjunction with 100 nM CGRP” value in assay [1] (10 μM antagonist or maximally stimulating insulin (23.7 nM) + 100 nM CGRP, CGRP alone 334±52) is 107 ± 17 nmol/g. In addition, in assay [1] (10 μM antagonist or maximally stimulating insulin (23.7 nM) + 100 nM amylin, amylin alone 216±26), the “free fatty acid content in conjunction with 100 nM amylin” value was determined as 100 ± 11 nmol/g. Besides, the “intramuscular free fatty acid content” value in assay [1] (soleus, normally fed rats, 100 nM amylin or CGRP-1, 4.4 μM norepinephrine, 23.7 nM insulin, control 78±21) turned out to be 67 ± 9 nmol/g. The molecule further showed a 2-DOG-uptake in assay [2] (hormone alone (amylin 10 nM; insulin 23.7 nM), basal 8.8 ± 0.9) of 28.4 ± 6.4 nmol/g dry-wt muscle/min. Moreover, the “stimulation of glucose uptake” value in assay [2] (insulin 23.7 nM vs basal) was 3.2 fold.
For the molecule rat CGRP-1 (ligand; unit assumed), the EC50, total glycogen content, with insulin (23.7 nM) in assay [3] came out at 4.3 nM.
As for `CNCC(O)c1ccc(O)c(O)c1` (centres unmarked) [adrenaline], the “cAMP content, agonist alone” value in assay [4] (normal fed, 100 nM CGRP or adrenaline, control 3.9±0.2) was 9.6 ± 0.7 pmol/mg.
On to `CC(C)NCC(O)c1ccc(O)c(O)c1` (centres unmarked) [isoproterenol], for which the “cAMP content in soleus muscles” value in assay [4] (experiment of FIG. 13A) is 3.5 ± 0.2 pmol/mg; in assay [4] (experiment of FIG. 13B) it was 3.8 ± 0.2 pmol/mg.
With “rat amylin (from UniProt P12969) (ligand; unit assumed)”, the EC50, total glycogen content, with insulin (23.7 nM) in assay [3] worked out at 8.1 nM.
On the same count and under the same terms, the result for “salmon calcitonin (from UniProt P01263) (ligand; unit assumed)” reads 0.6 nM.
As to CSNLSTCVLGKLSQELHKLQTYPRTNTGSGTP (ligand, ends and bridges not checked; cysteine pairing not given here) [salmon calcitonin], in assay [3], the EC50, ^14C-glucose incorporation into glycogen, with insulin (23.7 nM) came out at 0.9 nM; the EC50, ^14C-glucose incorporation into glycogen, without insulin stood at 0.1 nM; the EC50, total glycogen content, without insulin was 1.7 nM.

The values above are taken from patent publication US20040038861A1, “Methods and compositions for normalizing lipid levels in mammalian tissues” (priority 2001, published 2004).
